Active and inactive are the calls of the source. The calls are words filed in the database; no cut-off is given here.

One assay relates to P388. The experiment in a line: Cytotoxicity against mouse P388 cells by MTT colorimetric method. The assay is classed as functional.
The subject of a further assay is Platelet. The assay can be described thus: Inhibition of thrombin-induced rabbit washed platelets aggregation by turbidimetric method. Format: functional, Oryctolagus cuniculus.

Turning to `C/C1=C\CC/C(C)=C/C=C(/C(C)C)CC/C(C(=O)O)=C/CC1`, the result with P388 was inactive.
With `C/C1=C\C=C(\C(C)C)CC/C(C=O)=C\CC/C(C)=C/CC1` [NEOCROTOCEMBRANAL], the Activity came to 6.48 µg/mL in the assay on P388 and 47.21 µg/mL in the assay with Platelet.
In turn, `C/C1=C\C=C(\C(C)C)CC/C(C(=O)O)=C\CC/C(C)=C/CC1` [NEOCROTOCEMBRANEIC ACID] gave an Activity with P388 of 41.47 µg/mL.

The record behind these values is ChEMBL document CHEMBL1144093, “Neocrotocembranal from Croton oblongifolius” (1999).
